Columns and labels:
Settings in all cases: P<0.05
anti-HBs IgG [1] = experiment: Test 1: serum anti-HBs IgG level by ELISA after immunization with hepatitis B surface antigen plus adjuvant (composite adjuvant of embodiment 1)
Method: Both of the total volume of vaccines and the composite vaccine adjuvant for injection were 0.1 ml.
In the single sodium ferulate adjuvant group, sodium ferulate 10 mg and hepatitis B surface antigen 5 μg were mixed and dissolved into physiological saline 0.1 ml, and then were injected into mice subcutaneously.
(§1) In the adjuvant-free group, hepatitis B surface antigen 5 μg were mixed and dissolved into physiological saline 0.1 ml, and then were injected into mice subcutaneously.
(§2) In the blank group, each mouse was injected with physiological saline 0.1 ml.
(§3) Immunization schemes: three times immunization in total, subcutaneous injection of ICR mice in 0, 1, 6 month respectively.
(§4) B. ELISA Detection of Serum Anti-HBs IgG Level […]
(§5) The obtained experimental data were analyzed by single factor analysis of variance using SPSS11.5 statistics software, and P<0.05 having a statistically significance.

anti-HBs IgG [2] = experiment: Test 2: serum anti-HBs IgG level by ELISA after immunization with hepatitis B surface antigen plus adjuvant (composite adjuvant of embodiment 2)
Method: Both of the total volume of vaccine for injection and of the composite vaccine adjuvant were 0.1 ml.
In the single sodium ferulate adjuvant group, sodium ferulate 25 mg and hepatitis B surface antigen 5 μg were mixed and dissolved into physiological saline 0.1 ml, and then were injected into mice subcutaneously.
In the adjuvant-free group, hepatitis B surface antigen 5 μg were dissolved into physiological saline 0.1 ml, and then were injected into mice subcutaneously.
as §2, §3, §4, §5

anti-HBs IgG [3] = experiment: Test 3: serum anti-HBs IgG level by ELISA after immunization with hepatitis B surface antigen plus adjuvant (composite adjuvant of embodiment 3)
Method: Both of the total volume of vaccines for injection and of the composite vaccine adjuvant were 0.1 ml.
In the single sodium ferulate adjuvant group, sodium ferulate 50 mg and hepatitis B surface antigen 5 μg were mixed and dissolved into physiological saline 0.1 ml, and then were injected into mice subcutaneously.
as §1, §2, §3
B. ELISA Detection of Serum Anti-HBs IgG Level
After 4, 8, 16, 24, 32 weeks of the initial immunization, collect vein blood of mouse tail, separate serum, and then use ELISA to detect the serum anti-HBs IgG level by method of protein microporous kit. […]
as §5

Measured: antibody levels compared with the aluminum adjuvant control group

[OH-].[OH-].[Zn+2] [zinc hydroxide]
significantly higher: all assays above
